Laboratory results published in the NIST ThermoML archive (doi:10.1021/acs.jced.6b00516).
± gives the expanded uncertainty stated by the source.

Experiment: xn = mol fraction of the nth substance listed
Settings: for viscosity / speed of sound: 102 kPa, Liquid; for viscosity: Concentric cylinders viscometry; for speed of sound: Frequency=3 MHz, Sing-around technique in a fixed-path interferometer; for surface tension liquid-gas: 294.4 K, Sessile Drop

CCCCC1CCCCC1 [butylcyclohexane] + Cc1ccccc1
Settings	speed of sound [m/s]	viscosity [mPa·s]
293.15 K, x1 = 0.0681	1321.1 ± 0.8	0.622 ± 0.011
293.15 K, x1 = 0.1544	1316.7 ± 1.2	0.649 ± 0.011
293.15 K, x1 = 0.2197	1314.5 ± 0.8	0.678 ± 0.011
293.15 K, x1 = 0.3045	1313 ± 0.8	0.721 ± 0.011
293.15 K, x1 = 0.3964	1312.8 ± 0.8	0.774 ± 0.012
293.15 K, x1 = 0.4964	1313.5 ± 0.8	0.838 ± 0.012
293.15 K, x1 = 0.6046	1315.6 ± 0.8	0.916 ± 0.012
293.15 K, x1 = 0.7244	1318.9 ± 0.8	1.02 ± 0.01
293.15 K, x1 = 0.8548	1323.3 ± 0.8	1.16 ± 0.02
293.15 K, x1 = 1	–	1.31 ± 0.01
303.15 K, x1 = 0.0681	1278.6 ± 0.8	0.552 ± 0.011
303.15 K, x1 = 0.1544	1274.6 ± 1.1	0.578 ± 0.011
303.15 K, x1 = 0.2197	1272.7 ± 0.8	0.603 ± 0.011
303.15 K, x1 = 0.3045	1271.6 ± 0.8	0.638 ± 0.011
303.15 K, x1 = 0.3964	1271.6 ± 0.8	0.683 ± 0.011
303.15 K, x1 = 0.4964	1272.7 ± 0.8	0.735 ± 0.011
303.15 K, x1 = 0.6046	1275 ± 0.8	0.8 ± 0.012
303.15 K, x1 = 0.7244	1278.6 ± 0.8	0.885 ± 0.012
303.15 K, x1 = 0.8548	1283.3 ± 0.8	0.991 ± 0.021
303.15 K, x1 = 1	–	1.12 ± 0.01
313.15 K, x1 = 0.0681	1236.5 ± 0.8	0.495 ± 0.011
313.15 K, x1 = 0.1544	1232.9 ± 0.8	0.518 ± 0.011
313.15 K, x1 = 0.2197	1231.4 ± 0.8	0.538 ± 0.011
313.15 K, x1 = 0.3045	1230.6 ± 0.8	0.568 ± 0.011
313.15 K, x1 = 0.3964	1230.9 ± 0.8	0.607 ± 0.011
313.15 K, x1 = 0.4964	1232.3 ± 0.8	0.651 ± 0.011
313.15 K, x1 = 0.6046	1234.9 ± 0.8	0.704 ± 0.011
313.15 K, x1 = 0.7244	1238.8 ± 0.8	0.775 ± 0.012
313.15 K, x1 = 0.8548	1243.7 ± 0.8	0.862 ± 0.021
313.15 K, x1 = 1	–	0.961 ± 0.012
323.15 K, x1 = 0.0681	1194.9 ± 0.8	0.446 ± 0.011
323.15 K, x1 = 0.1544	1191.8 ± 0.8	0.466 ± 0.011
323.15 K, x1 = 0.2197	1190.6 ± 0.8	0.484 ± 0.011
323.15 K, x1 = 0.3045	1190.1 ± 0.8	0.51 ± 0.011
323.15 K, x1 = 0.3964	1190.7 ± 0.8	0.541 ± 0.011
323.15 K, x1 = 0.4964	1192.5 ± 0.8	0.58 ± 0.011
323.15 K, x1 = 0.6046	1195.4 ± 0.8	0.625 ± 0.011
323.15 K, x1 = 0.7244	1199.6 ± 0.8	0.683 ± 0.011
323.15 K, x1 = 0.8548	1204.8 ± 0.8	0.754 ± 0.021
323.15 K, x1 = 1	–	0.837 ± 0.012
333.15 K, x1 = 0.0681	1153.9 ± 0.8	0.405 ± 0.011
333.15 K, x1 = 0.1544	1151.2 ± 0.7	0.422 ± 0.011
333.15 K, x1 = 0.2197	1150.3 ± 0.7	0.437 ± 0.011
333.15 K, x1 = 0.3045	1150.2 ± 0.7	0.46 ± 0.011
333.15 K, x1 = 0.3964	1151.1 ± 0.8	0.486 ± 0.011
333.15 K, x1 = 0.4964	1153.2 ± 0.8	0.519 ± 0.011
333.15 K, x1 = 0.6046	1156.5 ± 0.8	0.558 ± 0.011
333.15 K, x1 = 0.7244	1161 ± 0.8	0.604 ± 0.011
333.15 K, x1 = 0.8548	1166.5 ± 0.8	0.663 ± 0.021
333.15 K, x1 = 1	–	0.735 ± 0.011
343.15 K, x1 = 0.0681	–	0.37 ± 0.011
343.15 K, x1 = 0.1544	–	0.379 ± 0.011
343.15 K, x1 = 0.2197	–	0.397 ± 0.011
343.15 K, x1 = 0.3045	–	0.418 ± 0.011
343.15 K, x1 = 0.3964	–	0.438 ± 0.011
343.15 K, x1 = 0.4964	–	0.469 ± 0.011
343.15 K, x1 = 0.6046	–	0.502 ± 0.011
343.15 K, x1 = 0.7244	–	0.535 ± 0.011
343.15 K, x1 = 0.8548	–	0.586 ± 0.021
343.15 K, x1 = 1	–	0.648 ± 0.011
353.15 K, x1 = 0.0681	–	0.325 ± 0.011
353.15 K, x1 = 0.1544	–	0.345 ± 0.011
353.15 K, x1 = 0.2197	–	0.356 ± 0.011
353.15 K, x1 = 0.3045	–	0.373 ± 0.011
353.15 K, x1 = 0.3964	–	0.395 ± 0.011
353.15 K, x1 = 0.4964	–	0.426 ± 0.011
353.15 K, x1 = 0.6046	–	0.451 ± 0.011
353.15 K, x1 = 0.7244	–	0.49 ± 0.011
353.15 K, x1 = 0.8548	–	0.532 ± 0.021
353.15 K, x1 = 1	–	0.576 ± 0.011

Settings	surface tension liquid-gas [mN/m]
x1 = 0.0681	28.1 ± 0.2
x1 = 0.1544	27.7 ± 0.2
x1 = 0.2197	27.5 ± 0.2
x1 = 0.3045	27.3 ± 0.2
x1 = 0.3964	27.2 ± 0.2
x1 = 0.4964	27 ± 0.2
x1 = 0.6046	26.9 ± 0.2
x1 = 0.7244	26.7 ± 0.2

CCCCC1CCCCC1 [butylcyclohexane] + CCCCCCCCCCCCCCCC
Settings	speed of sound [m/s]	viscosity [mPa·s]
293.15 K, x1 = 0.1524	1353.6 ± 0.8	3.07 ± 0.02
293.15 K, x1 = 0.2876	1349.9 ± 0.8	2.76 ± 0.03
293.15 K, x1 = 0.4091	1346.4 ± 0.8	2.48 ± 0.03
293.15 K, x1 = 0.5182	1343.3 ± 0.8	2.25 ± 0.03
293.15 K, x1 = 0.6173	1340.4 ± 0.8	2.04 ± 0.03
293.15 K, x1 = 0.7078	1337.4 ± 0.8	1.86 ± 0.02
293.15 K, x1 = 0.7902	1334.9 ± 0.8	1.7 ± 0.02
293.15 K, x1 = 0.8658	1332.7 ± 0.8	1.55 ± 0.02
293.15 K, x1 = 0.9355	1330.4 ± 0.8	1.42 ± 0.02
293.15 K, x1 = 1	–	1.31 ± 0.01
303.15 K, x1 = 0.1524	1316.4 ± 0.8	2.46 ± 0.02
303.15 K, x1 = 0.2876	1312.6 ± 0.8	2.23 ± 0.02
303.15 K, x1 = 0.4091	1309 ± 0.8	2.03 ± 0.02
303.15 K, x1 = 0.5182	1305.6 ± 0.8	1.85 ± 0.02
303.15 K, x1 = 0.6173	1302.5 ± 0.8	1.69 ± 0.02
303.15 K, x1 = 0.7078	1299.2 ± 0.8	1.55 ± 0.02
303.15 K, x1 = 0.7902	1296.4 ± 0.8	1.42 ± 0.02
303.15 K, x1 = 0.8658	1293.8 ± 0.8	1.31 ± 0.02
303.15 K, x1 = 0.9355	1291.2 ± 0.8	1.21 ± 0.02
303.15 K, x1 = 1	–	1.12 ± 0.01
313.15 K, x1 = 0.1524	1279.7 ± 0.8	2.01 ± 0.01
313.15 K, x1 = 0.2876	1275.8 ± 0.8	1.84 ± 0.02
313.15 K, x1 = 0.4091	1272 ± 0.8	1.68 ± 0.02
313.15 K, x1 = 0.5182	1268.5 ± 0.8	1.54 ± 0.02
313.15 K, x1 = 0.6173	1265.1 ± 0.8	1.42 ± 0.02
313.15 K, x1 = 0.7078	1261.5 ± 0.8	1.31 ± 0.02
313.15 K, x1 = 0.7902	1258.3 ± 0.8	1.21 ± 0.02
313.15 K, x1 = 0.8658	1255.3 ± 0.8	1.12 ± 0.02
313.15 K, x1 = 0.9355	1252.3 ± 0.8	1.03 ± 0.02
313.15 K, x1 = 1	–	0.961 ± 0.012
323.15 K, x1 = 0.1524	1243.6 ± 0.8	1.68 ± 0.01
323.15 K, x1 = 0.2876	1239.6 ± 0.8	1.54 ± 0.02
323.15 K, x1 = 0.4091	1235.5 ± 0.8	1.42 ± 0.02
323.15 K, x1 = 0.5182	1231.8 ± 0.8	1.31 ± 0.02
323.15 K, x1 = 0.6173	1228.2 ± 0.8	1.21 ± 0.02
323.15 K, x1 = 0.7078	1224.3 ± 0.8	1.12 ± 0.02
323.15 K, x1 = 0.7902	1220.8 ± 0.8	1.04 ± 0.02
323.15 K, x1 = 0.8658	1217.6 ± 0.8	0.966 ± 0.015
323.15 K, x1 = 0.9355	1214.1 ± 0.8	0.897 ± 0.015
323.15 K, x1 = 1	–	0.837 ± 0.012
333.15 K, x1 = 0.1524	1208.1 ± 0.8	1.42 ± 0.01
333.15 K, x1 = 0.2876	1203.9 ± 0.8	1.31 ± 0.02
333.15 K, x1 = 0.4091	1199.7 ± 0.8	1.21 ± 0.02
333.15 K, x1 = 0.5182	1195.7 ± 0.8	1.13 ± 0.02
333.15 K, x1 = 0.6173	1191.8 ± 0.8	1.05 ± 0.02
333.15 K, x1 = 0.7078	1187.6 ± 0.8	0.972 ± 0.014
333.15 K, x1 = 0.7902	1183.9 ± 0.8	0.906 ± 0.014
333.15 K, x1 = 0.8658	1180.3 ± 0.8	0.844 ± 0.014
333.15 K, x1 = 0.9355	1176.4 ± 0.8	0.783 ± 0.014
333.15 K, x1 = 1	–	0.735 ± 0.011
343.15 K, x1 = 0.1524	–	1.22 ± 0.01
343.15 K, x1 = 0.2876	–	1.13 ± 0.01
343.15 K, x1 = 0.4091	–	1.05 ± 0.01
343.15 K, x1 = 0.5182	–	0.977 ± 0.014
343.15 K, x1 = 0.6173	–	0.912 ± 0.013
343.15 K, x1 = 0.7078	–	0.851 ± 0.013
343.15 K, x1 = 0.7902	–	0.797 ± 0.013
343.15 K, x1 = 0.8658	–	0.745 ± 0.014
343.15 K, x1 = 0.9355	–	0.694 ± 0.014
343.15 K, x1 = 1	–	0.648 ± 0.011
353.15 K, x1 = 0.1524	–	1.06 ± 0.01
353.15 K, x1 = 0.2876	–	0.987 ± 0.013
353.15 K, x1 = 0.4091	–	0.921 ± 0.013
353.15 K, x1 = 0.5182	–	0.86 ± 0.013
353.15 K, x1 = 0.6173	–	0.805 ± 0.013
353.15 K, x1 = 0.7078	–	0.753 ± 0.013
353.15 K, x1 = 0.7902	–	0.706 ± 0.013
353.15 K, x1 = 0.8658	–	0.662 ± 0.013
353.15 K, x1 = 0.9355	–	0.619 ± 0.013
353.15 K, x1 = 1	–	0.576 ± 0.011

Settings	surface tension liquid-gas [mN/m]
x1 = 0.1524	26.9 ± 0.2
x1 = 0.2876	26.9 ± 0.2
x1 = 0.4091	26.9 ± 0.2
x1 = 0.5182	26.8 ± 0.2
x1 = 0.6173	26.8 ± 0.2
x1 = 0.7078	26.8 ± 0.2
x1 = 0.7902	26.7 ± 0.2
x1 = 0.8658	26.7 ± 0.2
x1 = 0.9355	26.7 ± 0.2
